Source: US11884653B2, “Arylnaphthalene compounds as vacuolar-ATPase inhibitors and the use thereof” (Purdue Research Foundation, priority 2018, dated 2024)

Target: V-ATPase
Assay: acridine orange quenching (proton-pumping function of V-ATPase) in isolated HEK293 vesicles
Format: biochemical
Conditions: read-out: AO Quenching IC50
Protocol: To assess if ability of diphyllin and derivatives to inhibit endosomal acidification is due to the expected ability of diphyllin to inhibit V-ATPase activity, compounds were assayed for inhibition of both the proton-pumping and ATPase functions of the isolated V-ATPase enzyme. V-ATPase containing vesicles were isolated from HEK293 cells following methods similar to that found in […]. (Zoncu, R. et al., Science 2011, 334, 678-683). To determine the effect of compounds upon the proton pumping function of V-ATPase, isolated vesicles were incubated with acridine orange and the compound or vehicle for 1 h prior to the addition of ATP which initiated pump activity. The quenching of the 530 nm emission of acridine orange was measured over 1h before addition of nigericin to relax the proton gradient within vesicles. IC50 values against the proton-pumping function of V-ATPase could be assessed by quantifying the change in Acridine Orange (AO) fluorescence immediately before and after the addition of nigericin.
HEK293 vesicle isolation-Cells were grown to confluency in a 175 cm^2 flask (Corning) before growth media was removed and replaced with serum-free DMEM for 2 h. 1 μM FCCP in DMEM was then added for 15 min before cells were scrapped form the plate and pelleted at 1000×g for 5 min. […]

- IC50: 61 ± 2.84 nM
SMILES: COc1cc2c(OCCCN3CCN(CCO)CC3)c3c(c(-c4ccc5c(c4)OCO5)c2cc1OC)C(=O)OC3 [Compound 2i, 9-(benzo[d][1,3]dioxol-5-yl)-4-(3-(4-(2-hydroxyethyl)piperazin-1-yl)propoxy)-6,7-dimethoxynaphtho[2,3-c]furan-1(3H)-one]
